For 31 compounds, activity and EC50 results are on record in patent US10450326B2, “Thiazolopyrimidinone compounds and preparation methods and use thereof” (PEKING UNIVERSITY, priority 2015, dated 2019).

The target of the assay is T1, α7 nAChR (Homo sapiens, UniProt P36544).
T1 construct: expressed in transfected cells; host or cells: Xenopus oocytes (cRNA injection)
The assay can be described thus: α7 nAChR positive allosteric modulator activity assay, voltage clamp in Xenopus oocytes with 100 μM ACh. It counts as cell-based. Particulars: for activity at 10 µM: at 10 μM compound, current induced by 100 μM ACh, Xenopus oocytes expressing α7 nAChR, read-out: Max Mod (%, at 10 μM); for EC50: potentiation of current induced by 100 μM ACh, Hill equation fit. How it is done:
The experimental process was as follows:
(1) Xenopus oocytes were injected with cRNA encoding α7 nAChR in order to express α7 nAChR on the cell membrane successfully;
(2) 100 μM ACh alone was added, and the α7 nAChR characteristic current caused by it was recorded as a control;
(5) The oocytes were incubated for 1 min with 10 μM compound, then 10 µM compound and 100 μM ACh were added simultaneously and the current induced by ACh was recorded at this time;
(6) The differences between the two currents in terms of peak intensity and duration were compared, with the ratio of peak intensity of the two currents representing the adjustment effect (Enhance Rate), in order to determine whether the compound had PAM activity, if the activity was good, then the subsequent test was carried out;
(7) Concentration gradient was set and the effects of compounds at different concentrations on the α7 nAChR characteristic current induced by 100 μM ACh were evaluated. Several determinations were carried out at the same concentration, and the results were presented in the form of “mean±standard deviation”;
(8) The EC50 (median maximum effect concentration) values and Max mod (the current amplitude caused by the maximal degree of adjustable endogenous agonist acetylcholine) values of the compounds and other activity data were obtained by Hill equation Inormalized=Emax/(1+(EC50/C)nH).
The amplitude of the peak current is only normalized by the amplitude produced by 100 μM ACh and different concentrations of LD486. […] It can be seen from FIG. 3 that the Hill equation is used to fit the dose-response curve and calculate the kinetic parameters.

T1 sequence (P36544 23-502): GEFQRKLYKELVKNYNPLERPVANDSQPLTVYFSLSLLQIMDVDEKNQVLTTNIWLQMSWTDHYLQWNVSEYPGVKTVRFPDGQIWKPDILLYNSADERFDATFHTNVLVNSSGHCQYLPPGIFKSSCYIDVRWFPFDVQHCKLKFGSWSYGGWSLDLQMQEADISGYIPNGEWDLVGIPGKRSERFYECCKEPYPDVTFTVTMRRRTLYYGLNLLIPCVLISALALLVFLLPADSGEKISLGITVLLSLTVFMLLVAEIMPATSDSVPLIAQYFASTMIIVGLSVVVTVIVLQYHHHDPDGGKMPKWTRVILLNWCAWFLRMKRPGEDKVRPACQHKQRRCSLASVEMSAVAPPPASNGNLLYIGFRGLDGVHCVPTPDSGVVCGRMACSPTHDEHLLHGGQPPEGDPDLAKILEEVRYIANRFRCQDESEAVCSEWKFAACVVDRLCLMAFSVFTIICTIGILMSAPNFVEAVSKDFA

Consider `Cc1cccc(Cl)c1-n1cnc2nc(NCc3ccccc3)sc2c1=O` [JWX-A1228, 6-(2-chloro-6-methylphenyl)-2-(Benzylamino)thiazolo[4,5-d]pyrimidin-7(6H)-one], for which the activity at 10 µM is 110%.

Regarding `CCCNc1nc2ncn(-c3c(C)cccc3Cl)c(=O)c2s1` [JWX-A1229, 6-(2-Chloro-6-methylphenyl)-2-(n-propylamino)thiazolo[4,5-d]pyrimidin-7(6H)-one], the activity at 10 µM worked out at 110%.

`Cc1cccc(Cl)c1-n1cnc2nc(Nc3ccc(F)c(Cl)c3)sc2c1=O` [JWX-A-C0104, 6-(2-chloro-6-methylphenyl)-2-((3-chloro-4-fluorophenyl)amino)thiazolo[4,5-d]pyrimidin-7(6H)-one]: the activity at 10 µM came to 500% and the concentration giving a half-maximal response (EC50) amounted to 10 µM.

Regarding `Cc1ccc(Nc2nc3ncn(-c4c(C)cccc4Br)c(=O)c3s2)cc1F` [JWX-A-C0106, 6-(2-Bromo-6-methylphenyl)-2-((3-fluoro-4-methylphenyl)amino)thiazolo[4,5-d]pyrimidin-7(6H)-one], the activity at 10 µM worked out at 200% and the concentration giving a half-maximal response (EC50) was found to be 10 µM.

For the compound `Cc1ccc(Nc2nc3ncn(-c4c(C)cccc4F)c(=O)c3s2)cc1F` [JWX-A-C0111, 6-(2-fluoro-6-methylphenyl)-2-((3-fluoro-4-methylphenyl)amino)thiazolo[4,5-d]pyrimidin-7(6H)-one], the activity at 10 µM came out at 110%.

In the case of `Cc1ccc(-n2cnc3nc(Nc4ccc(C)c(F)c4)sc3c2=O)c(Cl)c1` [JWX-A-C0229, 6-(2-Chloro-4-methylphenyl)-2-((3-fluoro-4-methylphenyl)amino)thiazolo[4,5-d]pyrimidin-7(6H)-one], the activity at 10 µM came to 110%.

On to `Cc1ccc(Nc2nc3ncn(-c4ccccc4Cl)c(=O)c3s2)cc1F` [JWX-A-C0831, 6-(2-Chlorophenyl)-2-((3-fluoro-4-methylphenyl)amino)thiazolo[4,5-d]pyrimidin-7(6H)-one], for which the activity at 10 µM worked out at 380% and the EC50 is 10 µM.

Turning to `Cc1cccc(Cl)c1-n1cnc2nc(Nc3ccc(OC(F)(F)F)cc3)sc2c1=O` [JWX-A-C0901, 6-(2-Chloro-6-methylphenyl)-2-((4-(trifluoromethoxy)phenyl)amino)thiazolo[4,5-d]pyrimidin-7(6H)-one], the activity at 10 µM stood at 200% and the EC50 is 10 µM.

With `Cc1cccc(Cl)c1-n1cnc2nc(Nc3cccc(OC(F)(F)F)c3)sc2c1=O` [JWX-A-C0907, 6-(2-Chloro-6-methylphenyl)-2-((3-(trifluoromethoxy)phenyl)amino)thiazolo[4,5-d]pyrimidin-7(6H)-one], the activity at 10 µM stood at 150% and the EC50 was found to be 10 µM.

In the case of `Cc1cccc(Cl)c1-n1cnc2nc(Nc3ccc(F)c(F)c3)sc2c1=O` [JWX-A-C0915, 6-(2-Chloro-6-methylphenyl)-2-((3,4-difluorophenyl)amino)thiazolo[4,5-d]pyrimidin-7(6H)-one], the activity at 10 µM amounted to 300% and the EC50 is 10 µM.

`Cc1cc(C)cc(Nc2nc3ncn(-c4c(C)cccc4Cl)c(=O)c3s2)c1` [JWX-A-C1017, 6-(2-Chloro-6-methylphenyl)-2-((3,5-dimethylphenyl)amino)thiazolo[4,5-d]pyrimidin-7(6H)-one]: the EC50 came out at 5.02 µM.

As for `Cc1cccc(Cl)c1-n1cnc2nc(NC(=O)c3ccc(Cl)cc3)sc2c1=O` [JWX-A-C1020, N-(6-(2-Chloro-6-methylphenyl)-7-oxo-6,7-dihydrothiazolo[4,5-d]pyrimidin-2-yl)-4-chlorobenzamide], the activity at 10 µM worked out at 350% and the EC50 is 10 µM.

In the case of `Cc1ccc(Nc2nc3ncn(-c4ccccc4C)c(=O)c3s2)cc1F` [JWX-A-C1026, 6-(o-tolyl)-2-((3-fluoro-4-methylphenyl)amino)-thiazolo[4,5-d]pyrimidin-7(6H)-one], the activity at 10 µM stood at 300% and the 50% effective concentration (EC50) turned out to be 10 µM.

As for `Cc1cccc(Cl)c1-n1cnc2nc(NC(=O)c3ccc(Br)cc3)sc2c1=O` [JWX-A-C1122, N-(6-(2-chloro-6-methylphenyl)-7-oxo-6,7-dihydrothiazolo[4,5-d]pyrimidin-2-yl)-4-bromobenzamide], the activity at 10 µM worked out at 1000% and the EC50 was 9.8 µM.

For `Cc1cccc(Cl)c1-n1cnc2nc(NC(=O)c3ccc(C(F)(F)F)cc3)sc2c1=O` [JWX-A-C1128, N-(6-(2-Chloro-6-methylphenyl)-7-oxo-6,7-dihydrothiazolo[4,5-d]pyrimidin-2-yl)-4-(trifluoromethyl)benzamide], the activity at 10 µM amounted to 200% and the half-maximal effective concentration (EC50) turned out to be 10 µM.

Consider `Cc1cccc(Cl)c1-n1cnc2nc(NC(=O)c3ccc(OC(F)(F)F)cc3)sc2c1=O` [JWX-A-C1205, N-(6-(2-Chloro-6-methylphenyl)-7-oxo-6,7-dihydrothiazolo[4,5-d]pyrimidin-2-yl)-4-(trifluoromethoxy)benzamide], for which the activity at 10 µM worked out at 980% and the EC50 was 10.8 µM.

As to `Cc1cccc(Cl)c1-n1cnc2nc(-c3ccccc3)sc2c1=O` [JWX-C1200, 6-(2-Chloro-6-methylphenyl)-2-phenylthiazolo[4,5-d]pyrimidin-7(6H)-one], the activity at 10 µM came to 110%.

For the compound `Cc1cc(C)c(-n2cnc3nc(Nc4ccccc4)sc3c2=O)c(C)c1` [LD252, 6-Mesityl-2-(phenylamino)thiazolo[4,5-d]pyrimidin-7(6H)-one], the activity at 10 µM is 110%.

`Cc1cc(C)c(-n2cnc3nc(Nc4ccccn4)sc3c2=O)c(C)c1` [LD286, 6-Mesityl-2-(pyridin-2-ylamino)thiazolo[4,5-d]pyrimidin-7(6H)-one]: the activity at 10 µM was 110%.

Regarding `Cc1cc(C)c(-n2cnc3nc(Nc4ccncc4)sc3c2=O)c(C)c1` [LD293, 6-Mesityl-2-(pyridin-4-ylamino)thiazolo[4,5-d]pyrimidin-7(6H)-one], the activity at 10 µM is 110%.

Turning to `CSc1nc2ncn(-c3c(Cl)cccc3Cl)c(=O)c2s1` [LD493, 6-(2,6-Dichlorophenyl)-2-(methylthio) thiazolo[4,5-d]pyrimidin-7(6H)-one], the activity at 10 µM was found to be 110%.

Consider `CSc1nc2nnn(-c3c(Cl)cccc3Cl)c(=O)c2s1` [LD496, 3-(2,6-Dichlorophenyl)-6-(methylthio) thiazolo[4,5-d][1,2,3]triazin-4(3H)-one], for which the activity at 10 µM came to 110%.

Take `Cc1cccc(Cl)c1-n1cnc2nc(SCc3ccccc3F)sc2c1=O` [LYH150309-2F, 6-(2-Chloro-6-methylphenyl)-2-((2-fluorobenzyl)thio)thiazolo[4,5-d]pyrimidin-7(6H)-one]: the activity at 10 µM was 620% and the EC50 stood at 4.18 µM.

Regarding `Cc1cccc(Cl)c1-n1cnc2nc(SCc3cccc(F)c3)sc2c1=O` [LYH150310-3F, 6-(2-Chloro-6-methylphenyl)-2-((3-fluorobenzyl)thio)thiazolo[4,5-d]pyrimidin-7(6H)-one], the activity at 10 µM was determined as 500% and the EC50 was determined as 10 µM.

Turning to `Cc1cccc(Cl)c1-n1cnc2nc(SCc3ccc(F)cc3)sc2c1=O` [LYH150312-4F, 6-(2-Chloro-6-methylphenyl)-2-((4-fluorobenzyl)thio)thiazolo[4,5-d]pyrimidin-7(6H)-one], the activity at 10 µM was found to be 670% and the EC50 came out at 2.87 µM.

Turning to `Cc1ccc(CSc2nc3ncn(-c4c(C)cccc4Cl)c(=O)c3s2)cc1` [LYH150318-4Me, 6-(2-Chloro-6-methylphenyl)-2-((4-methylbenzyl)thio)thiazolo[4,5-d]pyrimidin-7(6H)-one], the activity at 10 µM was found to be 300% and the EC50 was 10 µM.

As to `Cc1cccc(CSc2nc3ncn(-c4c(C)cccc4Cl)c(=O)c3s2)c1` [LYH150324-3Me, 6-(2-Chloro-6-methylphenyl)-2-((3-methylbenzyl)thio)thiazolo[4,5-d]pyrimidin-7(6H)-one], the activity at 10 µM came out at 230% and the concentration giving a half-maximal response (EC50) turned out to be 10 µM.

For the compound `Cc1ccccc1CSc1nc2ncn(-c3c(C)cccc3Cl)c(=O)c2s1` [LYH150325-2Me, 6-(2-Chloro-6-methylphenyl)-2-((2-methylbenzyl)thio)thiazolo[4,5-d]pyrimidin-7(6H)-one], the activity at 10 µM stood at 370% and the EC50 was found to be 10 µM.

As to `COc1ccc(CSc2nc3ncn(-c4c(C)cccc4Cl)c(=O)c3s2)cc1` [LYH150326-4OCH3, 6-(2-Chloro-6-methylphenyl)-2-((4-methoxybenzyl)thio)thiazolo[4,5-d]pyrimidin-7(6H)-one], the activity at 10 µM turned out to be 300% and the EC50 worked out at 10 µM.

Take `Cc1cccc(Cl)c1-n1cnc2nc(SCc3ccc(C(F)(F)F)cc3)sc2c1=O` [LYH150409-4CF3, 6-(2-Chloro-6-methylphenyl)-2-((4-(trifluoromethyl)benzyl)thio)thiazolo[4,5-d]pyrimidin-7(6H)-one]: the activity at 10 µM worked out at 140% and the 50% effective concentration (EC50) was determined as 10 µM.

Consider `Cc1cccc(Cl)c1-n1cnc2nc(Sc3ccc(F)cc3)sc2c1=O` [LYH150908, 6-(2-Chloro-6-methylphenyl)-2-((4-fluorophenyl)thio)thiazolo[4,5-d]pyrimidin-7(6H)-one], for which the activity at 10 µM is 200% and the EC50 came out at 10 µM.

Broadly, the EC50 is the midpoint of the concentration-response curve.
